In the supplement of paper PMC10307832:

What was measured:
Assay in all cases: relative viability (nuclei count vs DMSO), 5 days (fraction); higher = more cells survive
[1] = compound: CC(C)C[C@H](NC(=O)[C@H](CCc1ccccc1)NC(=O)CN1CCOCC1)C(=O)N[C@@H](Cc1ccccc1)C(=O)N[C@@H](CC(C)C)C(=O)[C@@]1(C)CO1 [Carfilzomib] + CS(=O)(=O)CCNCc1ccc(-c2ccc3ncnc(Nc4ccc(OCc5cccc(F)c5)c(Cl)c4)c3c2)o1 [Lapatinib] (partner 2 µM)
Procedure, shortened: (§1)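 Relative viability is defined as nuclei in treated wells over nuclei in vehicle wells. Duplicate plates were run and medians reported. Lung cancer cell lines in 1536-well plates were dosed by pin tool one day after seeding, with one drug or with a fixed anchor-drug dose plus five library-drug doses (not always all listed) in √10 steps, and nuclei were counted after 5 days.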

[2] = compound: CC(C)C[C@H](NC(=O)[C@H](CCc1ccccc1)NC(=O)CN1CCOCC1)C(=O)N[C@@H](Cc1ccccc1)C(=O)N[C@@H](CC(C)C)C(=O)[C@@]1(C)CO1 [Carfilzomib] + Cc1nc(NC(=O)N2CCC[C@H]2C(N)=O)sc1-c1ccnc(C(C)(C)C(F)(F)F)c1 [Alpelisib] (partner 2 µM)
Procedure, shortened: as §1

[3] = compound: O=C(c1cc(Cc2n[nH]c(=O)c3ccccc23)ccc1F)N1CCN(C(=O)C2CC2)CC1 [Olaparib] + N=C(N)NC(=N)NCCc1ccccc1 [Phenformin] (partner 250 µM)
Procedure, shortened: as §1

[4] = compound: C[C@@H](Oc1cc(-c2cnn(C3CCNCC3)c2)cnc1N)c1c(Cl)ccc(F)c1Cl [Crizotinib] + Cc1cc(Nc2cc(N3CCN(C)CC3)nc(Sc3ccc(NC(=O)C4CC4)cc3)n2)n[nH]1 [Tozasertib] (partner 0.1 µM)
Procedure, shortened: as §1

Cell Line | relative viability ([1]; first compound 0.001 µM) | relative viability ([1]; first compound 0.003162 µM) | relative viability ([1]; first compound 0.01 µM) | relative viability ([1]; first compound 0.03162 µM) | relative viability ([1]; first compound 0.1 µM) | relative viability ([2]; first compound 0.001 µM) | relative viability ([2]; first compound 0.003162 µM) | relative viability ([2]; first compound 0.01 µM) | relative viability ([2]; first compound 0.03162 µM) | relative viability ([2]; first compound 0.1 µM) | relative viability ([3]; first compound 0.08 µM) | relative viability ([3]; first compound 0.253 µM) | relative viability ([3]; first compound 2.53 µM) | relative viability ([3]; first compound 8 µM) | relative viability ([4]; first compound 0.01 µM) | relative viability ([4]; first compound 0.03162 µM) | relative viability ([4]; first compound 0.1 µM) | relative viability ([4]; first compound 1 µM) | relative viability ([4]; first compound 0.3162 µM)
HCC-15 | 0.857 | 0.872 | 0.918 | 0.428 | 0.176 | 0.855 | 0.914 | 0.86 | 0.506 | 0.0942 | 0.599 | 0.423 | 0.445 | 0.409 | 0.408 | 0.377 | 0.389 | 0.339 | 
HCC-44 | 1.07 | 0.985 | 1.16 | 0.878 | 0.245 | 0.786 | 0.785 | 0.861 | 0.705 | 0.134 | 0.208 | 0.167 | 0.271 | 0.225 | 0.936 |  | 0.992 | 1.01 | 0.836
HCC-78 | 0.791 | 0.701 | 0.9 | 0.165 | 0.142 | 0.327 | 0.45 | 0.362 | 0.287 | 0.157 | 0.72 | 0.66 | 0.756 | 0.714 |  | 0.47 | 0.419 | 0.442 | 0.391
HCC-366 | 0.941 | 1.02 | 0.963 | 0.305 | 0.0207 | 0.402 | 0.518 | 0.413 | 0.285 | 0.0174 | 0.768 | 0.583 | 0.489 | 0.413 | 0.143 | 0.0981 | 0.106 | 0.136 | 
HCC-827 | 0.175 | 0.164 | 0.166 | 0.258 | 0.154 | 0.943 | 0.948 | 0.945 | 0.934 | 0.357 | 0.361 | 0.372 | 0.398 | 0.35 | 0.427 | 0.438 | 0.414 | 0.415 | 0.413
HOP-62 | 1.16 | 1.21 | 1.06 | 0.308 | 0.0688 | 0.935 | 1.12 | 0.986 | 0.118 | 0.0839 | 0.783 | 0.644 | 0.762 | 0.478 | 0.396 | 0.33 | 0.354 | 0.383 | 0.322
IA-LM | 0.846 | 0.667 | 0.434 | 0.0463 | 0.081 | 0.747 | 0.821 | 0.633 | 0.151 | 0.0147 |  |  |  |  |  |  |  |  | 
LC-2-ad | 0.861 | 1.14 | 0.984 | 0.153 | 0.12 | 0.915 | 0.923 | 0.956 | 0.106 | 0.109 | 0.75 | 0.508 | 0.533 | 0.607 | 0.425 | 0.454 | 0.431 | 0.47 | 0.423
LCLC-103H |  |  |  |  |  | 0.972 | 1.01 | 0.99 | 0.671 | 0.195 | 0.406 | 0.309 | 0.36 | 0.306 | 0.37 | 0.39 | 0.488 | 0.578 | 0.451
NCI-H441 |  |  |  |  |  | 0.946 | 0.842 | 0.2 | 0.102 | 0.15 | 0.824 | 0.873 | 0.951 | 0.706 | 0.527 | 0.609 | 0.536 | 0.837 | 
NCI-H522 |  |  |  |  |  |  |  |  |  |  | 0.665 | 0.722 | 0.582 | 0.562 | 0.509 | 0.492 | 0.503 | 0.471 | 0.596
NCI-H1299 | 0.98 | 1.01 | 0.982 | 0.681 | 0.147 | 1.1 | 1.01 | 1.06 | 1.02 | 0.257 |  |  |  |  |  |  |  |  | 
NCI-H1563 | 0.926 | 1.1 | 0.927 | 0.771 | 0.506 | 1.04 | 0.866 | 0.877 | 0.812 | 0.569 | 0.677 | 0.657 | 0.681 | 0.734 |  |  |  |  | 
NCI-H1623 |  |  |  |  |  |  |  |  |  |  | 0.582 | 0.619 | 0.497 | 0.474 | 0.355 | 0.399 | 0.415 | 0.43 | 0.395
NCI-H1648 |  |  |  |  |  |  |  |  |  |  |  |  |  |  | 0.548 | 0.599 |  | 0.47 | 0.497
NCI-H1650 |  | 0.781 | 0.264 | 0.165 | 0.154 |  |  |  |  |  | 0.446 | 0.475 | 0.405 | 0.537 | 0.407 | 0.35 | 0.433 | 0.415 | 0.356
NCI-H1703 | 1.02 | 1.19 | 0.207 | 0.149 | 0.173 | 0.246 | 0.334 | 0.126 | 0.112 | 0.122 |  |  |  |  |  |  |  |  | 
NCI-H1792 | 0.794 | 0.896 | 0.939 | 0.985 | 0.697 | 0.648 | 0.742 | 0.674 | 0.756 | 0.386 | 0.284 | 0.224 | 0.273 | 0.194 |  |  |  |  | 
NCI-H2342 |  |  |  |  |  |  |  |  |  |  | 0.577 | 0.503 | 0.544 | 0.598 | 0.489 | 0.492 | 0.584 | 0.485 | 0.524
SW 900 |  |  |  |  |  |  |  |  |  |  | 0.614 | 0.525 | 0.558 | 0.555 | 0.657 | 0.541 | 0.512 | 0.613 | 0.52
